Laboratory results as given in patent US20110257168A1, “DERIVATIVES OF OXABISPIDINE AS NEURONAL NICOTINIC ACETYLCHOLINE RECEPTOR LIGANDS” (Targacept, Inc., priority 2008, published 2011).
Read-outs that look alike come from different tables or passages of the source.

Experiments:
Rat α4β2 = molecular target: T1, Rat α4β2 (Rattus norvegicus, UniProt P09483+P12390); assay: Competition binding to rat α4β2 receptors in membrane preparations
T1 construct: Preparation of membranes from rat tissues; Rat cortices were obtained from Analytical Biological Services; tissue Analytical Biological Services, Incorporated (ABS, Wilmington, Del.); host or cells: rat cortex membranes (female Sprague-Dawley)
Protocol: (§1) Preparation of membranes from rat tissues. Rat cortices were obtained from Analytical Biological Services, Incorporated (ABS, Wilmington, Del.). Tissues were dissected from female Sprague-Dawley rats, frozen and shipped on dry ice. Tissues were stored at −20° C. until needed for membrane preparation. Cortices from 10 rats were pooled and homogenized by Polytron (Kinematica GmbH, Switzerland) in 10 volumes (weight:volume) of ice-cold preparative buffer (KCl, 11 mM; KH2PO4, 6 mM; NaCl 137 mM; Na2HPO4 8 mM; HEPES (free acid), 20 mM; iodoacetamide, 5 mM; EDTA, 1.5 mM; 0.1 mM PMSF pH 7.4). The resulting homogenate was centrifuged at 40,000 g for 20 minutes at 4° C. and the resulting pellet was resuspended in 20 volumes of ice-cold water. After 60-minute incubation at 4° C., a new pellet was collected by centrifugation at 40,000 g for 20 minutes at 4° C. The final pellet was resuspended in preparative buffer and stored at −20° C. On the day of the assay, tissue was thawed, centrifuged at 40,000 g for 20 minutes and then resuspended in PBS (Dulbecco's Phosphate Buffered Saline, Life Technologies, pH 7.4) to a final concentration of 2-3 mg protein/mL. Protein concentrations were determined using the Pierce BCA Protein Assay kit (Pierce Biotechnology, Rockford, Ill.), with bovine serum albumin as the standard. Preparation of membranes from clonal cell lines. Cells were harvested in ice-cold PBS, pH 7.4, then homogenized with a polytron (Brinkmann Instruments, Westbury, N.Y.). Homogenates were centrifuged at 40,000 g for 20 minutes (4° C.). The pellet was resuspended in PBS and protein concentration determined using the Pierce BCA Protein Assay kit (Pierce Biotechnology, Rockford, Ill.).
(§2) Competition binding to receptors in membrane preparations. Binding to nicotinic receptors was assayed on membranes using standard methods adapted from published procedures (Lippiello and Fernandes, 1986; Davies et al., 1999). In brief, membranes were reconstituted from frozen stocks (approximately 0.2 mg protein) and incubated for 2 h on ice in […] assay buffer (PBS) in the presence of competitor compound (0.001 nM to […]) and radioligand. [^3H]-nicotine (L-(−)-[N-methyl-3H]-nicotine, 69.5 Ci/mmol, Perkin-Elmer Life Sciences) was used for human α4β2 binding studies. [^3H]-epibatidine (52 Ci/mmol, Perkin-Elmer Life Sciences) was used for binding studies at the other receptor subtypes. Incubation was terminated by rapid filtration on a multimanifold tissue harvester (Brandel, Gaithersburg, Md.) using GF/B filters presoaked in 0.33% polyethyleneimine (w/v) to reduce non-specific binding. Filters were washed 3 times and the radioactivity retained was determined by liquid scintillation counting.
(§3) Binding data analysis. Binding data were expressed as percent total control binding. Replicates for each point were averaged and plotted against the log of drug concentration. The IC50 (concentration of the compound that produces 50% inhibition of binding) was determined by least squares non-linear regression using GraphPad Prism software (GraphPAD, San Diego, Calif.). Ki was calculated using the Cheng-Prusoff equation (Cheng and Prusoff, 1973).

human α4β2 = human α4β2 (Homo sapiens, UniProt P17787+P43681); assay: Competition binding to human α4β2 receptors in membrane preparations
Protocol: (§4) SH-EP1/human α4β2 (Eaton et al., 2003), SH-EP1/human α4β4 (Gentry et al., 2003), SH-EP1/α6β3β4α5 (Grinevich et al., 2005), TE671/RD and SH-SY5Y cell lines (obtained from Dr. Ron Lukas, Barrow Neurological Institute) were maintained in proliferative growth phase in Dulbecco's modified Eagle's medium (Gibco/BRL) with 10% horse serum (Gibco BRL), 5% fetal bovine serum (HyClone, Logan Utah), 1 mM sodium pyruvate, 4 mM L-glutamine. For maintenance of stable transfectants, the α4β2 and α4β4 cell media was supplemented with 0.25 mg/mL zeocin and 0.13 mg/mL hygromycin B. Selection was maintained for the α6β3β4α5 cells with 0.25 mg/mL of zeocin, 0.13 mg/mL of hygromycin B, 0.4 mg/mL of geneticin, and 0.2 mg/mL of blasticidin. HEK/human α7/RIC3 cells (obtained from J. Lindstrom, U. Pennsylvania) were maintained in proliferative growth phase in Dulbecco's modified Eagle's medium (Gibco/BRL) with 10% fetal bovine serum (HyClone, Logan Utah), 1 mM sodium pyruvate, 4 mM L-glutamine, 0.4 mg/mL geneticin; 0.2 mg/ml hygromycin B.
as §1, §2
(§5) Binding data analysis. Binding data were expressed as percent total control binding. Replicates for each point were averaged and plotted against the log of drug concentration. […]

Rat α7 = molecular target: T2, Rat α7 (Rattus norvegicus, UniProt Q05941); assay: Competition binding to rat α7 receptors in membrane preparations; conditions: membranes, [3H]-epibatidine competition; Ki by Cheng-Prusoff; read-out: Rat α7 Ki
T2 construct: Preparation of membranes from rat tissues; Rat cortices were obtained from Analytical Biological Services; tissue Analytical Biological Services, Incorporated (ABS, Wilmington, Del.); host or cells: rat brain membranes (only cortex is described)
Protocol: as §1, §2, §3

Human α7 = molecular target: T3, Human α7 (Homo sapiens, UniProt P36544); assay: Competition binding to human α7 receptors in membrane preparations
T3 construct: host or cells: HEK cells co-expressing RIC3
Protocol: as §4, §1, §2, §5

[1] = membranes, [3H]-epibatidine competition, Ki by Cheng-Prusoff, read-out: Rat α4β2 Ki
[2] = membranes, [3H]-epibatidine competition, Ki by Cheng-Prusoff, read-out: Human α7 Ki
[3] = membranes, [3H]-nicotine competition, Ki by Cheng-Prusoff, read-out: human α4β2 Ki

| SMILES | Ki (Rat α4β2; [1]) | Ki (human α4β2) | Ki (Rat α7) | Ki (Human α7; [2]) | Ki (Rat α4β2) | Ki (human α4β2; [3]) | Ki (Human α7) |
| --- | --- | --- | --- | --- | --- | --- | --- |
| Clc1cc(N2CC3CNCC(C2)O3)cnc1Cl [3-(5,6-dichloropyridin-3-yl)-9-oxa-3,7-diazabicyclo[3.3.1]nonane] | 0.7 nM | 0.3 nM | 84 nM | 39 nM | – | – | – |
| Clc1ccc(Oc2cncc(N3CC4CNCC(C3)O4)c2)cc1Cl [3-(5-(3,4-dichlorophenoxy)pyridin-3-yl)-9-oxa-3,7-diazabicyclo[3.3.1]nonane] | – | – | 210 nM | 360 nM | 11 nM | 3.5 nM | – |
| c1ncc(N2CC3CNCC(C2)O3)cc1OCC1CC1 [3-(5-(cyclopropylmethoxy)pyridin-3-yl)-9-oxa-3,7-diazabicyclo[3.3.1]nonane] | – | – | 9300 nM | – | 2.9 nM | 0.5 nM | – |
| FC(F)Oc1cncc(N2CC3CNCC(C2)O3)c1 [3-(5-(difluoromethoxy)pyridin-3-yl)-9-oxa-3,7-diazabicyclo[3.3.1]nonane] | 0.36 nM | 0.42 nM | – | 1600 nM | – | – | – |
| Clc1cncc(N2CC3CNCC(C2)O3)c1 [3-(5-chloropyridin-3-yl)-9-oxa-3,7-diazabicydo[3.3.1]nonane] | 2.1 nM | 1 nM | 370 nM | 180 nM | – | – | – |
| N#Cc1cc(N2CC3CNCC(C2)O3)cnc1F [3-(5-cyano-6-fluoropyridin-3-yl)-9-oxa-3,7-diazabicyclo[3.3.1]nonane] | – | – | – | 16000 nM | 24 nM | 19 nM | – |
| N#Cc1cncc(N2CC3CNCC(C2)O3)c1 [3-(5-cyanopyridin-3-yl)-9-oxa-3,7-diazabicyclo[3.3.1]nonane] | – | – | – | 2000 nM | 11 nM | 2.7 nM | – |
| Clc1ncc(N2CC3CNCC(C2)O3)cc1C1CC1 [3-(5-cyclopropyl-6-chloropyridin-3-yl)-9-oxa-3,7-diazabicyclo[3.3.1]nonane] | – | – | – | – | 14 nM | 0.18 nM | 87 nM |
| c1ncc(N2CC3CNCC(C2)O3)cc1C1CC1 [3-(5-cyclopropylpyridin-3-yl)-9-oxa-3,7-diazabicyclo[3.3.1]nonane] | – | – | – | 1300 nM | 6.4 nM | 2 nM | – |
| CN1CC2CN(c3cncc(F)c3)CC(C1)O2 [3-(5-fluoropyridin-3-yl)-7-methyl-9-oxa-3,7-diazabicyclo[3.3.1]nonane] | 280 nM | – | – | 2100 nM | – | 33 nM | – |
| CC(C)Oc1cncc(N2CC3CNCC(C2)O3)c1 [3-(5-isopropoxypyridin-3-yl)-9-oxa-3,7-diazabicyclo[3.3.1]nonane] | – | – | 61000 nM | – | 1.3 nM | 0.9 nM | – |
| COc1cc(N2CC3CNCC(C2)O3)cnc1F [3-(5-methoxy-6-fluoropyridin-3-yl)-9-oxa-3,7-diazabicyclo[3.3.1]nonane] | 1.1 nM | 0.43 nM | – | 1000 nM | – | – | – |
| COc1cncc(N2CC3CNCC(C2)O3)c1 [3-(5-methoxypyridin-3-yl)-9-oxa-3,7-diazabicyclo[3.3.1]nonane] | – | – | 560 nM | 350 nM | 1.9 nM | 0.9 nM | – |
| Cc1cncc(N2CC3CN(C)CC(C2)O3)c1 [3-(5-methylpyridin-3-yl)-7-methyl-9-oxa-3,7-diazabicyclo[3.3.1]nonane] | 370 nM | – | – | 8700 nM | – | 25 nM | – |
| Cc1cncc(N2CC3CNCC(C2)O3)c1 [3-(5-methylpyridin-3-yl)-9-oxa-3,7-diazabicydo[3.3.1]nonane] | – | – | 200 nM | 4500 nM | 0.5 nM | 0.3 nM | – |
| FC(F)(F)c1cncc(N2CC3CNCC(C2)O3)c1 [3-(5-trifluoromethylpyridin-3-yl)-9-oxa-3,7-diazabicyclo[3.3.1]nonane] | – | – | 17000 nM | – | 9.7 nM | 3.8 nM | – |
| FC(F)Oc1cc(N2CC3CNCC(C2)O3)cnc1Cl [3-(6-chloro-5-(difluoromethoxy)pyridin-3-yl)-9-oxa-3,7-diazabicyclo[3.3.1]nonane] | – | – | – | 560 nM | 0.08 nM | 0.16 nM | – |
| Clc1ccc(N2CC3CNCC(C2)O3)nn1 [3-(6-chloropyridazin-3-yl)-9-oxa-3,7-diazabicyclo[3.3.1]nonane] | 96 nM | 63 nM | – | 1300 nM | – | – | – |
| Clc1ccc(N2CC3CNCC(C2)O3)cn1 [3-(6-chloropyridin-3-yl)-9-oxa-3,7-diazabicydo[3.3.1]nonane] | – | – | 210 nM | 240 nM | 5.2 nM | 1.2 nM | – |
| N#Cc1ncc(N2CC3CNCC(C2)O3)cc1OC(F)F [3-(6-cyano-5-(difluoromethoxy)pyridin-3-yl)-9-oxa-3,7-diazabicyclo[3.3.1]nonane] | – | – | – | 940 nM | 0.12 nM | 0.26 nM | – |
| N#Cc1ccc(N2CC3CNCC(C2)O3)cn1 [3-(6-cyanopyridin-3-yl)-9-oxa-3,7-diazabicyclo[3.3.1]nonane] | 290 nM | – | – | 8100 nM | – | 42 nM | – |
| Fc1ccc(N2CC3CNCC(C2)O3)cn1 [3-(6-fluoropyridin-3-yl)-9-oxa-3,7-diazabicyclo[3.3.1]nonane] | – | – | 1400 nM | 180 nM | 16 nM | 2.5 nM | – |
| Cc1ccc(N2CC3CNCC(C2)O3)cn1 [3-(6-methylpyridin-3-yl)-9-oxa-3,7-diazabicydo[3.3.1]nonane] | 30 nM | 4.9 nM | – | 600 nM | – | – | – |
| FC(F)(F)c1ccc(N2CC3CNCC(C2)O3)cn1 [3-(6-trifluoromethylpyridin-3-yl)-9-oxa-3,7-diazabicyclo[3.3.1]nonane] | 48 nM | 6.8 nM | – | 1900 nM | – | – | – |
| c1cc2cc(N3CC4CNCC(C3)O4)cnc2o1 [3-(furo[2,3-b]pyridin-5-yl)-9-oxa-3,7-diazabicyclo[3.3.1]nonane] | – | – | – | 6600 nM | 23 nM | 48 nM | – |
| c1cc2ncc(N3CC4CNCC(C3)O4)cc2o1 [3-(furo[3,2-b]pyridin-6-yl)-9-oxa-3,7-diazabicyclo[3.3.1]nonane] | – | – | – | 5700 nM | 91 nM | 50 nM | – |
| c1cnc(N2CC3CNCC(C2)O3)cn1 [3-(pyrazin-2-yl)-9-oxa-3,7-diazabicyclo[3.3.1]nonane] | 250 nM | – | – | 2200 nM | – | 37 nM | – |
| CN1CC2CN(c3cccnc3)CC(C1)O2 [3-methyl-7-(pyridin-3-yl)-9-oxa-3,7-diazabicyclo[3.3.1]nonane] | 180 nM | – | – | 5900 nM | – | 95 nM | – |
